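96-well plates; 48 h exposure; 5 concentrations. Endpoints by linear interpolation between flanking doses. Not reached: highest tested concentration assigned. GI50 is the concentration that inhibits growth by half. At the TGI there is no net growth.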
Columns and labels:
Test in all cases: growth of human tumour cells (NCI), 48 h
A498 renal = test system: A498 renal
DU-145 prostate = test system: DU-145 prostate
HL-60(TB) leukemia = test system: HL-60(TB) leukemia
HS 578T breast = test system: HS 578T breast
MDA-MB-231 breast = test system: MDA-MB-231 breast
PC-3 prostate = test system: PC-3 prostate
BT-549 breast = test system: BT-549 breast
CCRF-CEM leukemia = test system: CCRF-CEM leukemia
MDA-N = test system: MDA-N
DLD-1 colon = test system: DLD-1 colon
DMS 114 small cell lung = test system: DMS 114 small cell lung
DMS 273 small cell lung = test system: DMS 273 small cell lung
SNB-78 CNS = test system: SNB-78 CNS
LXFL 529 NSCLC = test system: LXFL 529 NSCLC

Structure (SMILES)	GI50 (A498 renal)	TGI (A498 renal)	GI50 (DU-145 prostate)	TGI (DU-145 prostate)	GI50 (HL-60(TB) leukemia)	TGI (HL-60(TB) leukemia)	GI50 (HS 578T breast)	TGI (HS 578T breast)	GI50 (MDA-MB-231 breast)	TGI (MDA-MB-231 breast)	GI50 (PC-3 prostate)	TGI (PC-3 prostate)	TGI (BT-549 breast)	TGI (CCRF-CEM leukemia)	TGI (MDA-N)	TGI (DLD-1 colon)	TGI (DMS 114 small cell lung)	TGI (DMS 273 small cell lung)	TGI (SNB-78 CNS)	TGI (LXFL 529 NSCLC)
Cn1cc(-c2csc(-c3cn(C)c4ccc(Br)cc34)n2)c2cnccc21	1.78 µM	3.67 µM	1.74 µM	3.17 µM	1.48 µM	3.31 µM	2.23 µM	4.73 µM	1.66 µM	3.09 µM	1.55 µM	3.02 µM	–	–	–	–	–	–	–	–
[O-]c1c[n+](CCCC[n+]2cc([O-])on2)no1	–	> 100 µM	–	> 100 µM	–	> 100 µM	–	> 100 µM	–	> 100 µM	–	> 100 µM	> 100 µM	> 100 µM	> 100 µM	–	–	–	–	–
NC(=O)c1ccc(NS(=O)(=O)c2ccc(N)cc2)nc1	–	> 100 µM	–	> 100 µM	–	> 100 µM	–	> 100 µM	–	> 100 µM	–	> 100 µM	> 100 µM	> 100 µM	> 100 µM	–	–	–	–	–
CN(C)CC1CCCC(CN2CCCCC2)C1=O (centres undefined)	–	> 71.3 µM	–	32.5 µM	–	11.8 µM	–	59 µM	–	28.3 µM	–	29 µM	28.7 µM	5.48 µM	27.5 µM	8.92 µM	> 23.4 µM	54.9 µM	23.9 µM	–
CC(N)C(=O)OCN1C(=O)C2C3C=CC(C2C1=O)C1C2C(=O)N(COC(=O)C(C)N)C(=O)C2C31 (centres undefined)	–	–	–	–	–	62.2 µM	–	–	–	–	–	–	–	67.2 µM	–	54.4 µM	36.5 µM	36.7 µM	> 100 µM	60.8 µM
Nc1nc(Cl)cc(NCCCNc2cc(Cl)nc(N)n2)n1	–	> 100 µM	–	–	–	> 100 µM	–	–	–	–	–	–	–	> 100 µM	–	> 100 µM	> 100 µM	> 100 µM	–	> 100 µM
C1CCC(OCc2nnn3c2CCC3)OC1 (centres undefined)	–	–	–	–	–	> 100 µM	–	–	–	–	–	–	–	> 100 µM	–	> 100 µM	–	–	> 100 µM	> 100 µM
C=C1C(=O)OC2/C=C(\C)C3OC3/C=C(/C(=O)OC)C(O)C(OC(=O)C3(C)OC3C)C12 (centres undefined)	–	19.6 µM	–	–	–	–	–	–	–	–	–	–	–	2.63 µM	–	2.94 µM	1.94 µM	3.02 µM	3.97 µM	2.8 µM
Cc1ccccc1[P+](C)(c1ccccc1C)c1ccccc1C	–	49.9 µM	–	> 100 µM	–	–	–	55 µM	–	35.2 µM	–	55.2 µM	63.1 µM	0.0867 µM	–	–	–	–	–	–
O=c1oc2ccccc2n1P(=O)(n1c(=O)oc2ccccc21)n1c(=O)oc2ccccc21	–	> 100 µM	–	–	–	> 100 µM	–	–	–	–	–	–	–	> 100 µM	–	> 100 µM	> 100 µM	> 100 µM	> 100 µM	> 100 µM
CO[C@H]1ON=C(c2c(C)cc(C)cc2C)[C@@H]1C1(c2ccccc2)ON=C(c2c(C)cc(C)cc2C)O1 (some centres undefined)	–	–	–	–	–	> 100 µM	–	–	–	–	–	–	–	> 100 µM	–	> 100 µM	–	> 100 µM	> 100 µM	> 100 µM
c1ccc(CSC2(SCc3ccccc3)CCCC2)cc1	–	> 10 µM	–	> 10 µM	–	> 10 µM	–	> 10 µM	–	> 10 µM	–	> 10 µM	–	> 10 µM	> 10 µM	–	–	–	–	–
CC(C)OC(=O)Nc1cccc(Cl)c1	–	–	–	> 100 µM	–	> 100 µM	–	> 100 µM	–	> 100 µM	–	> 100 µM	> 100 µM	> 100 µM	> 100 µM	–	–	–	–	–
CS/C(C#N)=C(\C#N)SC	–	47.7 µM	–	40.7 µM	–	6.39 µM	–	> 100 µM	–	89.6 µM	–	62.2 µM	–	> 100 µM	–	–	–	–	–	–
Cc1ccc(S(=O)(=O)N2c3ccccc3[C@H]3CCc4c([nH]c5ccccc45)[C@H]32)cc1	–	–	–	> 100 µM	–	–	–	–	–	> 100 µM	–	> 100 µM	> 100 µM	> 100 µM	> 100 µM	–	–	–	–	–
CN1C(=O)CN2C(Cl)(Cl)C2(c2ccccc2F)c2cc([N+](=O)[O-])ccc21 (centres undefined)	–	–	–	–	–	–	–	–	–	–	–	–	–	> 100 µM	–	> 100 µM	> 100 µM	> 100 µM	–	> 100 µM
